Measured values as given in US9856279B2 (AGIOS PHARMACEUTICALS, INC, priority 2011, dated 2018).

biological target: IDH1 R132H (Homo sapiens, UniProt O75874, R132H); experiment: Assay for IDH1 R132H inhibitors (NADPH/aKG, resazurin detection); assay type: biochemical; conditions: Table 3; enzyme assay, 50 minutes at room temperature; read-out: IC50 (IDH1 R132H Inhibition)
Method in brief: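 Read-out is resorufin fluorescence (Ex544/Em590) 5 min after adding a 30 μM resazurin detection mix. Before that, mutant enzyme (0.2 μg/ml in its mix) ran 50 min at room temperature with compound, 8 uM NADPH and 2 mM aKG (mix levels) in Tris pH 7.5 with NaCl, MgCl2, BSA.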

Chain of IDH1 R132H (O75874 whole entry R132H): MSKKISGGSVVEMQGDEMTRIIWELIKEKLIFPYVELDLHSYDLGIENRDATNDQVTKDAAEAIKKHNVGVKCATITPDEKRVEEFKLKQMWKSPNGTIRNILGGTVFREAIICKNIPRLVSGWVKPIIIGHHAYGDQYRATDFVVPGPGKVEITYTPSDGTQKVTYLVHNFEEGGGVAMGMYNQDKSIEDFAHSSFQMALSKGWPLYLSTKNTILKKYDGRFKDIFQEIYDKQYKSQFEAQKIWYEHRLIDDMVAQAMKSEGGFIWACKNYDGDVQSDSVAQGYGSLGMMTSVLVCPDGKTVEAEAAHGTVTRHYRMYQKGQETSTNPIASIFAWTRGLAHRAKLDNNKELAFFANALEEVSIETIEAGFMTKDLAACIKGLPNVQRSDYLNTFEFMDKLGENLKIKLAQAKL

SMILES | IC50
N#Cc1cc(-c2ccccc2)c(-c2ccccc2)nc1N1CCN(C(=O)Cc2ccccc2)CC1 [Compound 123, 5,6-diphenyl-2-(4-(2-phenylacetyl)piperazin-1-yl)nicotinonitrile] | 5000 to 15000 nM
COCCC(=O)N1CCN(c2nc(C3CC3)c(-c3ccc(F)cc3F)cc2C#N)C[C@H]1C [Compound 250, (R)-6-cyclopropyl-5-(2,4-difluorophenyl)-2-(4-(3-methoxypropanoyl)-3-methylpiperazin-1-yl)nicotinonitrile] | ≤ 1000 nM

The remaining lines, values ahead:

IC50 | SMILES
5000 to 15000 nM | CC(C)c1nc(N2CCN(C(=O)c3ccco3)CC2c2ccccc2)c(C#N)cc1-c1ccccc1 (stereo not drawn) [Compound 166, 2-(4-(furan-2-carbonyl)-2-phenylpiperazin-1-yl)-6-isopropyl-5-phenylnicotinonitrile]
1000 to 5000 nM | COCCC(=O)N1CCN(c2nc(C(C)C)c(-c3ccc(C(F)(F)F)cc3)cc2C#N)C[C@H]1C [Compound 189, (R)-6-isopropyl-2-(4-(3-methoxypropanoyl)-3-methylpiperazin-1-yl)-5-(4-(trifluoromethyl)phenyl)-nicotinonitrile]
1000 to 5000 nM | COCCC(=O)N1CCN(c2nc(C(C)C)c(-c3cccc(Cl)c3)cc2C#N)C[C@H]1C [Compound 218, (R)-5-(3-chlorophenyl)-6-isopropyl-2-(4-(3-methoxypropanoyl)-3-methylpiperazin-1-yl)nicotinonitrile]
≤ 1000 nM | COCCC(=O)N1CCN(c2nc(C3CC3)c(-c3ccc(C)c(F)c3)cc2C#N)C[C@H]1C [Compound 235, (R)-6-cyclopropyl-5-(3-fluoro-4-methylphenyl)-2-(4-(3-methoxypropanoyl)-3-methylpiperazin-1-yl)nicotinonitrile]
5000 to 15000 nM | CC(C)c1cc(-c2ccccc2)c(C#N)c(N2CCN(C(=O)c3ccco3)C(c3ccccc3)C2)n1 (stereo not drawn) [Compound 155, 2-(4-(furan-2-carbonyl)-3-phenylpiperazin-1-yl)-6-isopropyl-4-phenylnicotinonitrile]
1000 to 5000 nM | Cc1ccc(-c2cc(C#N)c(N3CCN(C(=O)c4ccco4)[C@H](C)C3)nc2C(C)C)cc1 [Compound 180, (R)-2-(4-(furan-2-carbonyl)-3-methylpiperazin-1-yl)-6-isopropyl-5-p-tolylnicotinonitrile]
1000 to 5000 nM | COCCC(=O)N1CCN(c2nc(C(C)C)c(-c3cccc4ccccc34)cc2C#N)C[C@H]1C [Compound 217, (R)-6-isopropyl-2-(4-(3-methoxypropanoyl)-3-methylpiperazin-1-yl)-5-(naphthalen-1-yl)nicotinonitrile]
1000 to 5000 nM | CCOc1ccccc1-c1cc(C#N)c(N2CCN(C(=O)c3ccco3)C[C@@H]2C)nc1C(C)C [Compound 184, (S)-5-(2-ethoxyphenyl)-2-(4-(furan-2-carbonyl)-2-methylpiperazin-1-yl)-6-isopropylnicotinonitrile]
1000 to 5000 nM | CC(C)c1cc(-c2ccccc2)c(C#N)c(N2C[C@@H](C)N(C(=O)c3ccco3)[C@@H](C)C2)n1 [Compound 102, 2-((3S,5R)-4-(furan-2-carbonyl)-3,5-dimethylpiperazin-4-yl)-6-isopropyl-4-phenylnicotinonitrile]
1000 to 5000 nM | COCCC(=O)N1CCN(c2nc(C(C)C)c(-c3ccoc3)cc2C#N)C[C@H]1C [Compound 205, (R)-5-(furan-3-yl)-6-isopropyl-2-(4-(3-methoxypropanoyl)-3-methylpiperazin-1-yl)nicotinonitrile]
5000 to 15000 nM | CC[C@@H]1CN(c2nc(C(C)C)c(-c3ccccc3)cc2C#N)CCN1C(=O)c1ccco1 [Compound 172, (R)-2-(3-ethyl-4-(furan-2-carbonyl)piperazin-1-yl)-6-isopropyl-5-phenylnicotinonitrile]
1000 to 5000 nM | Cc1cccc(-c2cc(C#N)c(N3CCN(C(=O)c4ccoc4C)[C@H](C)C3)nc2C(C)C)c1 [Compound 200, (R)-6-isopropyl-2-(3-methyl-4-(2-methylfuran-3-carbonyl)piperazin-1-yl)-5-m-tolylnicotinonitrile]
≤ 1000 nM | Cc1cccc(-c2cc(C#N)c(N3CCN(C(=O)c4ccoc4)[C@H](C)C3)nc2C(C)C)c1 [Compound 191]
≤ 1000 nM | Cc1ccc(-c2cc(C#N)c(N3CCN(C(=O)c4ccoc4C)[C@H](C)C3)nc2C(C)C)cc1 [Compound 182, (R)-6-isopropyl-2-(3-methyl-4-(2-methylfuran-3-carbonyl)piperazin-1-yl)-5-p-tolylnicotinonitrile]

same assay, conditions: enzyme assay of Example 12; read-out: IDH1R132H IC50

SMILES | IC50
N#Cc1cc(-c2cccc3nc(Cl)ccc23)c(C2CC2)nc1N1CCN(C(=O)C2CC2)[C@H](C2CC2)C1 [Compound 549, (R)-5-(2-chloroquinolin-5-yl)-2-(4-(cyclopropanecarbonyl)-3-cyclopropylpiperazin-1-yl)-6-cyclopropylnicotinonitrile] | < 500 nM
CCO[C@H]1C[C@@H]1C(=O)N1CCN(c2nc(C3CC3)c(-c3ccc(F)cc3)cc2C#N)C[C@H]1C1CC1 [Compound 548, 6-cyclopropyl-2-((R)-3-cyclopropyl-4-((1S,2S)-2-ethoxycyclopropanecarbonyl)piperazin-1-yl)-5-(4-fluorophenyl)nicotinonitrile] | 500 to 1000 nM
CCc1ccccc1-c1c(C2CC2)nc(N2CCN(C(=O)CCOC)[C@H](C)C2)c(C#N)c1C [Compound 359, (R)-6-cyclopropyl-5-(2-ethyl-phenyl)-2-[4-(3-methoxy-propionyl)-3-methyl-piperazin-1-yl]-4-methyl-nicotinonitrile] | < 500 nM
COCCC(=O)N1CCN(c2nc(C3CC3)c(-c3cccc(N(C)C)c3)c(C)c2C#N)C[C@H]1C [Compound 362, (R)-6-cyclopropyl-5-(3-dimethylamino-phenyl)-2-[4-(3-methoxy-propionyl)-3-methyl-piperazin-1-yl]-4-methyl-nicotinonitrile] | < 500 nM
C=Cc1cc(-c2c(C3CC3)nc(N3CCN(C(=O)C=C4CCC4)[C@H](C4CC4)C3)c(C#N)c2C)ccn1 [Compound 820, (R)-6-(4-(2-cyclobutylideneacetyl)-3-cyclopropylpiperazin-1-yl)-2-cyclopropyl-4-methyl-2′-vinyl-3,4′-bipyridine-5-carbonitrile] | < 500 nM
N#Cc1cc(-c2cncc(-c3nnn[nH]3)c2)c(C2CC2)nc1N1CCN(C(=O)C2CC2)[C@H](C2CC2)C1 [Compound 554, (R)-6-(4-(cyclopropanecarbonyl)-3-cyclopropylpiperazin-1-yl)-2-cyclopropyl-5′-(1H-tetrazol-5-yl)-[3,3′-bipyridine]-5-carbonitrile] | < 500 nM
COCCC(=O)N1CCN(c2nc(C3CC3)c(-c3cccs3)cc2C#N)C[C@H]1C [Compound 273, (R)-6-cyclopropyl-2-(4-(3-methoxypropanoyl)-3-methylpiperazin-1-yl)-5-(thiophen-2-yl)nicotinonitrile] | 500 to 1000 nM
COCCC(=O)N1CCN(c2nc(C3CC3)c(-c3cccc(C(=O)N4CCCC4)c3)c(C)c2C#N)C[C@H]1C [Compound 332, (R)-6-cyclopropyl-2-[4-(3-methoxy-propionyl)-3-methyl-piperazin-1-yl]-4-methyl-5-[3-(pyrrolidine-1-carbonyl)-phenyl]-nicotinonitrile] | 500 to 1000 nM
N#Cc1cc(-c2cccc3cnccc23)c(C2CC2)nc1N1CCN(C(=O)C2CC2)CC(F)C1 (stereo not drawn) [Compound 477, 2-(4-(cyclopropanecarbonyl)-6-fluoro-1,4-diazepan-1-yl)-6-cyclopropyl-5-(isoquinolin-5-yl)nicotinonitrile] | 500 to 1000 nM
COCCC(=O)N1CCN(c2nc(C3CC3)c(N3CCOCC3)cc2C#N)C[C@H]1C [Compound 375, (R)-6-cyclopropyl-2-(4-(3-methoxypropanoyl)-3-methylpiperazin-1-yl)-5-morpholinonicotinonitrile] | 500 to 1000 nM
COCCC(=O)N1CCN(c2nc(C3CC3)c(-c3ccnn3C)cc2C#N)C[C@H]1C [Compound 371, (R)-6-cyclopropyl-2-[4-(3-methoxy-propionyl)-3-methyl-piperazin-1-yl]-5-(2-methyl-2H-pyrazol-3-yl)-nicotinonitrile] | 500 to 1000 nM
COCCC(=O)N1CCN(c2nc(C3CC3)c(N(C)c3ccnc(Cl)c3)cc2C#N)C[C@H]1C [Compound 699, (R)-5-((2-chloropyridin-4-yl)(methyl)amino)-6-cyclopropyl-2-(4-(3-methoxypropanoyl)-3-methylpiperazin-1-yl)nicotinonitrile] | < 500 nM
COCCC(=O)N1CCN(c2nc(C3CC3)c(-c3ccc(OCC4CC4)cc3)c(C)c2C#N)C[C@H]1C [Compound 336, (R)-6-cyclopropyl-5-(4-cyclopropylmethoxy-phenyl)-2-[4-(3-methoxy-propionyl)-3-methyl-piperazin-1-yl]-4-methyl-nicotinonitrile] | 500 to 1000 nM
COCCC(=O)N1CCN(c2nc(C3CC3)c(-c3cc(Cl)nc(C#N)c3)cc2C#N)C[C@H]1C [Compound 673, (R)-6′-chloro-2-cyclopropyl-6-(4-(3-methoxypropanoyl)-3-methylpiperazin-1-yl)-[3,4′-bipyridine]-2′,5-dicarbonitrile] | 500 to 1000 nM

Further lines, results first:

IC50 | SMILES
< 500 nM | C[C@@H]1CN(c2nc(C3CC3)c(-c3cccc4cnccc34)cc2C#N)CCN1C(=O)C1CC1 [Compound 556, (R)-2-(4-(cyclopropanecarbonyl)-3-methylpiperazin-1-yl)-6-cyclopropyl-5-(isoquinolin-5-yl)nicotinonitrile]
500 to 1000 nM | COCCC(=O)N1CCN(c2nc(C3CC3)c(-c3c(C)cccc3C)cc2C#N)C[C@H]1C [Compound 357, (R)-6-cyclopropyl-5-(2,6-dimethyl-phenyl)-2-[4-(3-methoxy-propionyl)-3-methyl-piperazin-1-yl]-nicotinonitrile]
500 to 1000 nM | COCCC(=O)N1CCN(c2nc(C3CC3)c(OC(C)c3ccc(Cl)cc3)cc2C#N)C[C@H]1C (stereo partly drawn) [Compound 311, 5-(1-(4-chlorophenyl)ethoxy)-6-cyclopropyl-2-((R)-4-(3-methoxypropanoyl)-3-methylpiperazin-1-yl)nicotinonitrile]
